Measured values from the supplement of paper PMC10307832.

Tests used:
Experiment in all cases: relative viability (nuclei count vs DMSO), 5 days (fraction); higher = more cells survive
AZ628 + Pemetrexed = compound: CC1=C(C=C(C=C1)NC(=O)C2=CC(=CC=C2)C(C)(C)C#N)NC3=CC4=C(C=C3)N=CN(C4=O)C [AZ628] + Nc1nc2[nH]cc(CCc3ccc(C(=O)N[C@@H](CCC(=O)O)C(=O)O)cc3)c2c(=O)[nH]1 [Pemetrexed] (partner 0.2 µM)
How it was run: (§1)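 Relative viability is defined as nuclei in treated wells over nuclei in vehicle wells. Duplicate plates were run and medians reported. Lung cancer cell lines in 1536-well plates were dosed by pin tool one day after seeding, with one drug or with a fixed anchor-drug dose plus five library-drug doses (not always all listed) in √10 steps, and nuclei were counted after 5 days.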

QS11 + Alpelisib = compound: C1CC2=C(C1)C=C(C=C2)OC3=NC(=C4C(=N3)N(C=N4)CC5=CC=C(C=C5)C6=CC=CC=C6)N[C@@H](CC7=CC=CC=C7)CO [QS11] + Cc1nc(NC(=O)N2CCC[C@H]2C(N)=O)sc1-c1ccnc(C(C)(C)C(F)(F)F)c1 [Alpelisib] (partner 2 µM)
How it was run: as §1

AZ628 + OSI-027 = compound: CC1=C(C=C(C=C1)NC(=O)C2=CC(=CC=C2)C(C)(C)C#N)NC3=CC4=C(C=C3)N=CN(C4=O)C [AZ628] + COc1cccc2cc(-c3nc([C@H]4CC[C@H](C(=O)O)CC4)n4ncnc(N)c34)[nH]c12 [OSI-027] (partner 0.5 µM)
How it was run: as §1

QS11 + Dasatinib = compound: C1CC2=C(C1)C=C(C=C2)OC3=NC(=C4C(=N3)N(C=N4)CC5=CC=C(C=C5)C6=CC=CC=C6)N[C@@H](CC7=CC=CC=C7)CO [QS11] + Cc1nc(Nc2ncc(C(=O)Nc3c(C)cccc3Cl)s2)cc(N2CCN(CCO)CC2)n1 [Dasatinib] (partner 0.075 µM)
How it was run: as §1

Cell Line	relative viability (AZ628 + Pemetrexed; first compound 0.08 µM)	relative viability (AZ628 + Pemetrexed; first compound 0.253 µM)	relative viability (AZ628 + Pemetrexed; first compound 0.8 µM)	relative viability (AZ628 + Pemetrexed; first compound 2.53 µM)	relative viability (AZ628 + Pemetrexed; first compound 8 µM)	relative viability (QS11 + Alpelisib; first compound 0.08 µM)	relative viability (QS11 + Alpelisib; first compound 0.253 µM)	relative viability (QS11 + Alpelisib; first compound 0.8 µM)	relative viability (QS11 + Alpelisib; first compound 2.53 µM)	relative viability (QS11 + Alpelisib; first compound 8 µM)	relative viability (AZ628 + OSI-027; first compound 0.08 µM)	relative viability (AZ628 + OSI-027; first compound 0.253 µM)	relative viability (AZ628 + OSI-027; first compound 0.8 µM)	relative viability (AZ628 + OSI-027; first compound 2.53 µM)	relative viability (AZ628 + OSI-027; first compound 8 µM)	relative viability (QS11 + Dasatinib; first compound 0.08 µM)	relative viability (QS11 + Dasatinib; first compound 0.253 µM)	relative viability (QS11 + Dasatinib; first compound 0.8 µM)	relative viability (QS11 + Dasatinib; first compound 2.53 µM)	relative viability (QS11 + Dasatinib; first compound 8 µM)
LK-2	0.273	0.221	0.263	0.343	0.15	1.01	1.15	1.21	0.868	1.59	0.191	0.234	0.234	0.187	0.198	0.287	0.321	0.317	0.268	0.306
SK-MES-1	0.867	0.915	0.844	0.91	0.59	0.997	0.919	0.918	0.886	0.849	0.599	0.593	0.653	0.572	0.297	0.374	0.307	0.425	0.326	0.297
NCI-H1944	0.624	0.576	0.511	0.52	0.394	0.794	0.896		0.826	0.846	0.439	0.335	0.331	0.319	0.301	0.197	0.214		0.226	0.272
SW 1573	0.806	0.79	0.675	0.765	0.461	0.844	0.656	0.772	0.741	0.718	0.669	0.555	0.359	0.362	0.26	0.537	0.635	0.545	0.393	0.329
PC-14	0.136	0.121	0.105	0.105	0.0944	1.08	0.982	0.911	1.01	1.02	0.727	0.956	0.733	0.666	0.329	0.223	0.201	0.289	0.26	0.15
LC-2-ad	0.3	0.29	0.262	0.274	0.266	0.93	0.853	0.698	1.08	0.779	0.817	0.87	0.779	0.821	0.703	0.535	0.537	0.614	0.693	0.79
201T	0.347	0.345	0.308	0.339	0.352	1.02	1.07	0.92	1.08	0.949	0.838	0.707	0.689	0.761	0.849	0.57	0.543	0.561	0.599	0.376
NCI-H2023	0.272	0.208	0.193	0.201	0.125	0.678	0.597	0.619	0.747	0.722	0.369	0.374	0.329	0.309	0.234	0.634	0.475	0.555	0.572	0.618
HOP-62	0.311	0.343	0.305	0.409	0.271	0.968	0.927	0.956	0.85	0.535	0.828	0.857	0.831	0.857	0.43	0.695	0.667	0.708	0.615	0.706
NCI-H661	0.95	0.979	0.867	0.848	0.822	0.657	0.599	0.658	0.637	0.646	0.631	0.617	0.513	0.593	0.47	0.794	0.804	0.891	0.798	0.711
NCI-H1734	0.375	0.423	0.397	0.391	0.34	0.681	0.719	0.697	0.581	0.65	0.604	0.565	0.512	0.46	0.293	0.449	0.509	0.504	0.481	0.597
EKVX	0.419	0.422	0.338	0.407	0.312	0.895	0.821		0.86	0.906	0.715	0.673	0.804	0.764	0.572	0.529	0.503	0.512	0.505	0.589
NCI-H1355	1.06	1.02	0.843	0.996	0.716	0.776	0.748	0.779	0.689	0.763	0.435	0.327	0.311	0.308	0.298	0.702	0.526	0.673	0.817	0.794
H3255	0.563	0.486	0.597	0.537	0.504	0.782	0.773		0.671	0.903	0.64	0.484	0.564	0.584	0.323	0.319	0.394		0.369	0.402
NCI-H23	0.616	0.464	0.419	0.45	0.396	0.647	0.638	0.557	0.508	0.69	0.568	0.528	0.464	0.474	0.309	0.809	0.673	0.738	0.654	0.712
NCI-H1755	0.421	0.434	0.403	0.579	0.353	1.07	0.947	0.632	0.835	0.857	0.683	0.74	0.781	0.636	0.575	0.449	0.39	0.38	0.391	0.314

Cell Line	relative viability (AZ628 + Pemetrexed; first compound 0.08 µM)	relative viability (AZ628 + Pemetrexed; first compound 0.253 µM)	relative viability (AZ628 + Pemetrexed; first compound 0.8 µM)	relative viability (AZ628 + Pemetrexed; first compound 2.53 µM)	relative viability (AZ628 + Pemetrexed; first compound 8 µM)	relative viability (QS11 + Alpelisib; first compound 0.08 µM)	relative viability (QS11 + Alpelisib; first compound 0.253 µM)	relative viability (QS11 + Alpelisib; first compound 0.8 µM)	relative viability (QS11 + Alpelisib; first compound 2.53 µM)	relative viability (QS11 + Alpelisib; first compound 8 µM)	relative viability (AZ628 + OSI-027; first compound 0.08 µM)	relative viability (AZ628 + OSI-027; first compound 0.253 µM)	relative viability (AZ628 + OSI-027; first compound 0.8 µM)	relative viability (AZ628 + OSI-027; first compound 2.53 µM)	relative viability (AZ628 + OSI-027; first compound 8 µM)	relative viability (QS11 + Dasatinib; first compound 0.08 µM)	relative viability (QS11 + Dasatinib; first compound 0.253 µM)	relative viability (QS11 + Dasatinib; first compound 0.8 µM)	relative viability (QS11 + Dasatinib; first compound 2.53 µM)	relative viability (QS11 + Dasatinib; first compound 8 µM)
NCI-H650	0.947	1.15	1.08	1.18	1.11	0.988	1	1.14	0.909	1.18	0.664	0.687	0.766	0.689	0.678	0.424	0.428	0.497	0.4	0.352
NCI-H1437	0.332	0.293	0.292	0.296	0.294	1.1	1.13	0.834	0.9	0.879	0.896	0.836	0.723	0.934	0.904	0.397	0.347	0.404	0.531	0.391
NCI-H460	0.0707	0.055	0.0564	0.0595	0.0641	0.515	0.498	0.554	0.3	0.0919	0.738	0.64	0.259	0.429	0.107	0.523	0.462	0.329	0.359	0.291
HARA	0.255	0.221	0.226	0.231	0.193	0.691	0.944		0.872	0.917	0.322	0.432	0.472	0.439	0.245	0.294	0.281		0.221	0.307
NCI-H2085	0.951	0.971	0.87	0.865	0.772	0.922	1	1.02	1.06	1.12	0.913	0.754	0.803	0.667	0.332	0.222	0.263	0.277	0.292	0.255
NCI-H1395	0.939	0.789	0.806	0.637	0.712		1.2	1.12	0.912	1.53	0.652	0.544	0.625	0.56	0.554	0.387	0.361	0.382	0.408	0.419
RERF-LC-KJ	0.475	0.474	0.464	0.508	0.467	0.851	0.779	0.928	0.675	0.852	0.53	0.523	0.528	0.462	0.458	0.921	0.836	0.764	0.61	0.534
HCC-78	0.95	0.905	0.892	0.89	0.915	0.411	0.31	0.401	0.43	0.321	0.427	0.37	0.391	0.341	0.399	0.432	0.395	0.491	0.558	0.67
NCI-H2087	0.671	0.632	0.604	0.501	0.281	1.18	1.02	0.95	0.743	0.858	0.52	0.335	0.213	0.274	0.13	0.745	0.963		0.963	1.2
SK-LU-1	0.603	0.973	0.885	1.01	0.66	1.14	0.934	0.917	0.774	0.712		0.315	0.276	0.33	0.208	0.175	0.158	0.172	0.167	0.169
EMC-BAC-2	0.481	0.494	0.476	0.516	0.589	0.802	0.698	0.887	0.759	0.594	0.397	0.425	0.477	0.436	0.448	0.341	0.337	0.376	0.285	0.269
A-427	1.12	0.97	1.01	0.957	0.609	1.03	1.16		1.06	1.11	0.336	0.286	0.236	0.197	0.169	0.646	0.718		0.708	0.729
NCI-H2170	0.285	0.259	0.267	0.3	0.266	0.785	0.907	0.833	0.791	1.16	0.836	0.676	0.717	0.749	0.578	0.621	0.482	0.582	0.794	0.968
COR-L23	0.22	0.23	0.198	0.219	0.21	0.828	0.665	0.698	0.589	0.617	0.678	0.669	0.602	0.558	0.302	0.505	0.59	0.552	0.358	0.355
PC-3 [JPC-3]	1.29	0.984	1.22	1.16	0.925	1.07	0.998	1.1	1.05	1.03	0.791	0.731	0.753	0.815	0.683	0.992	1.05	0.954	1.13	1.08
NCI-H520	0.669	0.596	0.67	0.707	0.286		0.912	0.921	0.92	0.986	0.262	0.21	0.206	0.203	0.232	0.186	0.254	0.191	0.208	0.167
